We go through seven molecules from patent publication US20240239798A1, “SALTS AND POLYMORPHS OF M[…] 3-DEUTEROMITRAGYNINE” (priority 2021, published 2024).

A short description of data set [1]: Solubility of 3-DM free base and 3-DM Glycolate Type A in IPA and IPA/H2O (19:1, v/v) at 5, 20, 40, 60° C., 24 hrs. It counts as physicochemical.
Data set [2] in a line: Approximate solubility of amorphous 3-DM free base starting material in 27 solvent systems at RT. It counts as physicochemical. The protocol: The approximate solubility of the free base starting material was determined in 27 solvent systems at RT. Approximate 2 mg of material was added into a 3-mL glass vial. […] The solubility results summarized in Table 10 were used to guide the solvent selection in salt screening design.

The format of data set [3] is physicochemical. The conditions noted are these: for solubility: organic solvent or mixture, read-out: Approximate solubility. The procedure:
In the first batch (100 mg scale), pure IPA was used as solvent. […] Detailed preparation procedures for the 3 scaled-up batches can be found below.

The conditions of data set [4]: Batch 810081-28-B.
For data set [5] the following is noted: cited from earlier work.
A short description of data set [6]: Background statements on solubility and gel formation in aqueous solution. It counts as physicochemical.

≈ marks a conversion by molar mass, not a printed value. Where a name gives a salt, the structure may show the parent alone. Read-outs that look alike come from different tables or passages of the source. A value given as a limit tells only on which side of the number the result lay.

For the molecule `[2H][C@@]12C[C@H](/C(=C\OC)C(=O)OC)[C@H](CC)CN1CCc1c2[nH]c2cccc(OC)c12` [3-DM free base, 3-deuteromitragynine], in data set [1] (IPA and IPA/H2O (19:1, v/v), each temperature (5-60° C.)), the “Solubility compared with Glycolate Type A” value is “much higher than that of Glycolate Type A”. Besides, the solubility (usually how much of the substance goes into solution per volume) was greater than 42 mg/mL in data set [2] (organic solvent or mixture, thermodynamic from solid, 1,4-dioxane, RT); greater than 48 mg/mL in data set [2] (organic solvent or mixture, thermodynamic from solid, 2-MeTHF, RT); greater than 46 mg/mL in data set [2] (organic solvent or mixture, thermodynamic from solid, ACN, RT); greater than 38 mg/mL in data set [2] (organic solvent or mixture, thermodynamic from solid, Acetone, RT); greater than 38 mg/mL in data set [2] (organic solvent or mixture, thermodynamic from solid, Acetone/n-Heptane (1:1), RT); greater than 46 mg/mL in data set [2] (organic solvent or mixture, thermodynamic from solid, Acetone/n-Heptane (1:4), RT). Further, the solubility is 7.7 to 23 mg/mL (≈ 19.3 to 57.6 mM) in data set [2] (organic solvent or mixture, thermodynamic from solid, Acetone/n-Heptane (1:9), RT); 4 to 6.7 mg/mL (≈ 10 to 16.8 mM) in data set [2] (organic solvent or mixture, thermodynamic from solid, Acetone/n-Heptane (1:15), RT); greater than 42 mg/mL in data set [2] (organic solvent or mixture, thermodynamic from solid, Acetone/n-Heptane (4:1), RT); greater than 46 mg/mL in data set [2] (organic solvent or mixture, thermodynamic from solid, CHCl3, RT); greater than 42 mg/mL in data set [2] (organic solvent or mixture, thermodynamic from solid, DCM, RT); greater than 46 mg/mL in data set [2] (organic solvent or mixture, thermodynamic from solid, DMAc, RT). The solubility was greater than 34 mg/mL in data set [2] (organic solvent or mixture, thermodynamic from solid, DMSO, RT); greater than 40 mg/mL in data set [2] (organic solvent or mixture, thermodynamic from solid, EtOAc, RT); greater than 38 mg/mL in data set [2] (organic solvent or mixture, thermodynamic from solid, EtOH, RT); greater than 36 mg/mL in data set [2] (organic solvent or mixture, thermodynamic from solid, IPA, RT); 7 to 21 mg/mL (≈ 17.5 to 52.6 mM) in data set [2] (organic solvent or mixture, thermodynamic from solid, IPA/H2O (4:1), RT); 23 to 46 mg/mL (≈ 57.6 to 115 mM) in data set [2] (organic solvent or mixture, thermodynamic from solid, IPA/H2O (9:1), RT). In addition, the solubility in data set [2] (organic solvent or mixture, thermodynamic from solid, IPAc, RT) was greater than 42 mg/mL; in data set [2] (organic solvent or mixture, thermodynamic from solid, MIBK, RT), greater than 40 mg/mL; in data set [2] (organic solvent or mixture, thermodynamic from solid, MTBE, RT), greater than 46 mg/mL; in data set [2] (organic solvent or mixture, thermodynamic from solid, MeOH, RT), greater than 46 mg/mL; in data set [2] (organic solvent or mixture, thermodynamic from solid, NMP, RT), greater than 44 mg/mL; in data set [2] (organic solvent or mixture, thermodynamic from solid, THF, RT) it was greater than 40 mg/mL. Also, the solubility is greater than 36 mg/mL in data set [2] (organic solvent or mixture, thermodynamic from solid, Toluene, RT); less than 2.3 mg/mL in data set [2] (organic solvent or mixture, thermodynamic from solid, n-Heptane, RT); less than 2.3 mg/mL in data set [2] (water, thermodynamic from solid, H2O, RT); greater than 40 mg/mL in data set [3] (EtOAc); greater than 38 mg/mL in data set [3] (EtOH); greater than 36 mg/mL in data set [3] (IPA). Besides, the solubility in data set [3] (MeOH) is greater than 46 mg/mL; in data set [3] (acetone), greater than 38 mg/mL; in data set [3] (acetone/n-heptane (1:1) v/v), greater than 42 mg/mL. The “Solubility in IPA (in words)” value in data set [3] (IPA, approximate) is given as “high solubility”.
In data set [4] (sonication time 0 s), `O=C(O)CO.[2H]C12CC(C(=COC)C(=O)OC)C(CC)CN1CCc1c2[nH]c2cccc(OC)c12` (centres unmarked) registered a D10 of 7.51 μm, a D50 of 19.96 μm, a D90 of 58.66 μm and an MV of 28.68 μm. In data set [4] (sonication time 30 s (30 Watt)), this molecule displayed a D10 of 5.92 μm, a D50 of 15.93 μm, a D90 of 47.05 μm and an MV of 22.77 μm.
For `[2H]C12CC(C(=COC)C(=O)OC)C(CC)CN1CCc1c2[nH]c2cccc(OC)c12` (centres unmarked) [3-DM Free Base Type A], the “Solubility in IPA/H2O (19:1, v/v) compared with IPA” value in data set [1] is reported as “higher than IPA”. The molecule further displayed an equilibrium solubility in data set [1] (IPA/H2O (19:1, v/v) at 60° C.) of 73.94 mg/mL.
Take `CC[C@@H]1CN2CCc3c([nH]c4cccc(OC)c34)[C@@H]2C[C@@H]1/C(=C\OC)C(=O)OC` [Mitragynine]: the “Solubility in conventional organic solvents (in words)” value in data set [5] (acetone, acetic acid, alcohols, chloroform and diethyl ether) is “soluble”. Also, in data set [5] (water), the “Solubility in water (in words)” value was “insoluble”.
Take `Cl.[2H]C12CC(C(=COC)C(=O)OC)C(CC)CN1CCc1c2[nH]c2cccc(OC)c12` (centres unmarked) [3-DM hydrochloride salt]: in data set [6], the “Behaviour in aqueous solution” value is reported as “forms a gel”.
For the molecule `O=C(O)CO.[2H][C@@]12C[C@H](/C(=C\OC)C(=O)OC)[C@H](CC)CN1CCc1c2[nH]c2cccc(OC)c12` [3-DM Glycolate], the “Results (forms obtained)” value by setting is: (Grind, 4 experiments) “Glycolate Type A”; (Liquid-vapor diffusion, 12 experiments) “Glycolate Type A, B, D, A + C”; (Slow cooling, 6 experiments) “Glycolate Type A, B, C”; (Slow evaporation, 7 experiments) “Glycolate Type A, C, E”; (Slurry at 50° C., 16 experiments) “Glycolate Type A, C”; (Slurry at RT, 25 experiments) “Glycolate Type A”. The “Results (forms obtained)” value (Solid vapor diffusion, 12 experiments) is on record as “Glycolate Type A, C”.
Consider `CC[C@@H]1CN2CCc3c([nH]c4cccc(OC)c34)[C@H]2C[C@@H]1/C(=C\OC)C(=O)OC` (stereo in doubt) [mitragynine hydrochloride], for which the “Behaviour in aqueous solution” value in data set [5] (aqueous solution) is “form a gel”.
